Targets include FecB Q336S (Mycobacterium tuberculosis, UniProt O53291, Q336S); FecB R141S (Mycobacterium tuberculosis, UniProt O53291, R141S); FecB Y270S (Mycobacterium tuberculosis, UniProt O53291, Y270S); FecB Q233S (Mycobacterium tuberculosis, UniProt O53291, Q233S); FecB D332S (Mycobacterium tuberculosis, UniProt O53291, D332S); FecB E272S (Mycobacterium tuberculosis, UniProt O53291, E272S); FecB R240S (Mycobacterium tuberculosis, UniProt O53291, R240S); FecB L163R (Mycobacterium tuberculosis, UniProt O53291, L163R).

Common to all, as to format: binding

This note sets out measurements from publication PMC10553834, “Differentiating the roles of Mycobacterium tuberculosis substrate binding proteins, FecB and FecB2, in iron uptake” (PLOS Pathogens, 2023).

As to ferric-carboxymycobactin [Fe-cMB], the Kd – broadly, a measure of binding affinity in units of concentration – at FecB Q336S is 1.4 µM; at FecB R141S, 1.13 µM; at FecB Y270S it was 0.94 µM; on FecB Q233S it was 1.05 µM; at FecB D332S, 0.99 µM; at FecB E272S it was 1.73 µM. The values for the Kd at FecB R240S and on FecB L163R were 1.1 µM and 1.16 µM, respectively.
